Data reported in patent US20200325518A1, “Systems and Methods for Metabolic Assessment Utilizing 1-Methoxy-PMS Field” (priority 2019, published 2020).

Tested on: Bacteria
Assay: BacTiter-Glo luminescence after incubation of bacteria with or without resazurin
Format: cell-based
Settings: bacteria incubated 4 hours at 35° C. in presence of resazurin versus added after incubation
Protocol: Bacteria were inoculated into 96-well microplates comprise cation-adjusted Mueller Hinton broth in the presence and absence of resazurin (alamarBlue™) and incubated at 35° C. for 4 hours. For wells that were not incubated with resazurin, the growth indicator was added immediately after the 4-hour incubation. BacTiter-Glo® reagent (Promega, Madison, Wis.) was added to all wells and luminescence was measured. […] Thus, it can be advantageous to remove growth indicator from test wells during incubation.

Q: Which “luminescent signal upon addition of BacTiter-Glo (viable bacteria)” value does the source give for `O=c1ccc2[n+]([O-])c3ccc(O)cc3oc-2c1` [resazurin, 7-hydroxy-10-oxidophenoxazin-10-ium-3-one] here?
A: The value was “less luminescent signal”.
